Patent US11453697B1, “Cyclic di-nucleotide compounds as sting agonists” (Merck Sharp & Dohme Corp., priority 2015, dated 2022)

Key:
[1] = molecular target: full-length HAQ STING (Homo sapiens (Human), UniProt Q86WV6, G230A/H232R/R293Q/R71H); experiment: 3H-cGAMP filtration binding assay (HAQ STING); conditions: competition with tritiated cGAMP, HAQ STING membrane; read-out: EC50 (nM), 3H-cGAMP filtration binding assay for HAQ STING
Excerpt: The ability of compounds to bind STING is quantified by the ability to compete with tritiated cGAMP ligand for human STING receptor membrane using a radioactive filter-binding assay. The binding assay employs STING receptor obtained from Hi-Five cell membranes overexpressing full-length HAQ STING prepared in-house and tritiated cGAMP ligand also purified in-house.
The ability of compounds to bind STING is quantified by their ability to compete with tritiated cGAMP ligand for human STING receptor membrane using a radioactive filter-binding assay.
The basic HAQ STING filtration assay protocol is as follows:
Compound and membrane then preincubated for 60 min at RT to allow compound binding to equilibrate. Following equilibration, 8 nM of [^3H] c-GAMP ligand was prepared by diluting into assay buffer, and 50 uL of this working stock was then manually added to each well of the assay plate. […] The filter plates were then dried at 55° C. for 30 min using a pressurized VWR oven before 30 uL of Ultima GoldF scintillate was added to each well. Tritium levels for each reaction well were then measured using a PerkinElmer TopCount plate reader.
After normalization to controls, the percent activity for each compound concentration was calculated by measuring the amount of remaining radioactivity. The plot of percent activity versus the log of compound concentration was fit with a 4-parameter dose response equation to calculate EC50 values.

[2] = tested on: IFN-β secretion in THP1 cells; experiment: IFN-β secretion in THP1 cell culture (5 h); format: cell-based, human; conditions: IFN-β secretion in THP1 cell culture, 5 h; compound at 30 μM; percent activation relative to 2′3′-cGAMP
In short: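 THP1 cells incubated with compound for 5 h at 37 °C, 5% CO2, and secreted IFN-β in supernatant quantified by AlphaLISA. Percent effect normalised to 30 uM cGAMP positive control and 0.3% DMSO. EC50 from 4-parameter fit.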

Chain of full-length HAQ STING (Q86WV6 other isoform, or with tags, fused parts or gaps, stated change not applied): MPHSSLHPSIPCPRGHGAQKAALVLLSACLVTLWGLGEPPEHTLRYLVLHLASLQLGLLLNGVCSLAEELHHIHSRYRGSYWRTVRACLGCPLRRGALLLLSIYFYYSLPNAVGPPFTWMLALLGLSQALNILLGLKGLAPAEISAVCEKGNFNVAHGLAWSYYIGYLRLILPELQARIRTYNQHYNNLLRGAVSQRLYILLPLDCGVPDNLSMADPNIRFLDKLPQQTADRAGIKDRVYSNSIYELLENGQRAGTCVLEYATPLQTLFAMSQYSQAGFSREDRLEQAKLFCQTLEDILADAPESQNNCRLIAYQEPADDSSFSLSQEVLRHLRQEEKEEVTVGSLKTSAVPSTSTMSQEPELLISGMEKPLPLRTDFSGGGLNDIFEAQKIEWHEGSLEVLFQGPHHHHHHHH

Compound | EC50 [1] [nM] | % Effect at 30 μM relative to 2′3′-cGAMP [2] [%]
CCc1ncnc2c1ncn2[C@@H]1O[C@@H]2COP(=O)(O)O[C@@H]3[C@H](O)[C@@H](COP(=O)(O)O[C@H]2[C@H]1O)O[C@H]3n1cnc2c(=O)[nH]c(N)nc21 [Example 56, 2-amino-9-[(5R,7R,8R,12aR,14R,15R,15aS,16R)-14-(6-ethyl-9H-purin-9-yl)-2,10,15,16-tetrahydroxy-2,10-dioxidooctahydro-12H-5,8-methanofuro[3,2-l][1,3,6,9,11,2,10]pentaoxadiphosphacyclotetradecin-7-yl]-1,9-dihydro-6H-purin-6-one] | 89.4 | 64
Nc1ncnc2c1ncn2[C@@H]1O[C@@H]2COP(=O)(O)O[C@@H]3C[C@@H](COP(=O)(O)O[C@H]2[C@H]1O)O[C@H]3n1cnc2c(=O)[nH]cnc21 [Example 50, 9-[(5S,7R,8R,12aR,14R,15R,15aS)-14-(6-amino-9H-purin-9-yl)-2,10,15-trihydroxy-2,10-dioxidooctahydro-12H-5,8-methanofuro[3,2-l][1,3,6,9,11,2,10]pentaoxadiphosphacyclotetradecin-7-yl]-1,9-dihydro-6H-purin-6-one] | 2.7 | 85
Nc1nc2c(ccn2[C@@H]2O[C@@H]3COP(=O)(O)O[C@H]4[C@@H](O)[C@H](n5ccc6c(N)ncnc65)O[C@@H]4COP(=O)(O)O[C@@H]2[C@@H]3O)c(=O)[nH]1 [Example 37, 2-amino-7-[(5R,7R,8R,12aR,14R,15R,15aS,16R)-14-(4-amino-7H-pyrrolo[2,3-d]pyrimidin-7-yl)-2,10,15,16-tetrahydroxy-2,10-dioxidooctahydro-12H-5,8-methanofuro[3,2-l][1,3,6,9,11,2,10]pentaoxadiphosphacyclotetradecin-7-yl]-3,7-dihydro-4H-pyrrolo[2,3-d]pyrimidin-4-one] | 620 | 57
Nc1nc2c(ncn2[C@@H]2O[C@@H]3COP(=O)(O)O[C@H]4[C@@H](O)[C@H](n5cnc6c(N)nc(F)nc65)O[C@@H]4COP(=O)(O)O[C@@H]2[C@@H]3O)c(=O)[nH]1 [Example 34, 2-amino-9-[(5R,7R,8R,12aR,14R,15R,15aS,16R)-14-(6-amino-2-fluoro-9H-purin-9-yl)-2,10,15,16-tetrahydroxy-2,10-dioxidooctahydro-12H-5,8-methanofuro[3,2-l][1,3,6,9,11,2,10]pentaoxadiphosphacyclotetradecin-7-yl]-1,9-dihydro-6H-purin-6-one] | 24.6 | 125
C#C[C@@]12COP(=O)(O)OC3C(O)[C@@H](COP(=O)(O)OC1C(O)[C@H](n1cnc4c(N)ncnc41)O2)O[C@H]3n1cnc2c(=O)[nH]c(N)nc21 (stereo in doubt) [Example 12, (5R,7R,8R,12aR,14R,15R,15aS,16R)-7-(2-amino-6-oxo-1,6-dihydro-9H-purin-9-yl)-14-(6-amino-9H-purin-9-yl)-12a-ethynyl-15,16-dihydroxyoctahydro-12H-5,8-methanofuro[3,2-l][1,3,6,9,11,2,10] pentaoxadiphosphacyclotetradecine-2,10-diolate 2,10-dioxide] | < 1 | 89
[N-]=[N+]=N[C@H]1[C@H]2OP(=O)(O)OC[C@H]3O[C@@H](n4cnc5c(O)ncnc54)[C@H](O)[C@@H]3OP(=O)(O)OC[C@H]1O[C@H]2n1cnc2c(=O)[nH]c(N)nc21 [Example 302, 2-amino-9-[(5S,7R,8R,12aR,14R,15R,15aS,16R)-16-azido-2,10,15-trihydroxy-14-(6-hydroxy-9H-purin-9-yl)-2,10-dioxidooctahydro-12H-5,8-methanofuro[3,2-l] [1,3,6,9,11,2,10]pentaoxadiphosphacyclo-tetradecin-7-yl]-1,9-dihydro-6H-purin-6-one] | 2.3 | 103
